Blank lines part the entries; values can stand above or below the molecule they belong to.
Experiments:
ZBP1 [1] = test: ZBP1 mRNA in PVECs cocultured with neutrophils, RT-PCR (DAPT, NDI, peptides 1–5); format: cell-based, mouse; conditions: DAPT, DLL4^+ neutrophil–PVEC coculture
Description: Immortalized mouse (Mus musculus) lung endothelial cells with polyoma middle T (PVECs) were purchased from Applied Biological Materials Inc. (ABM) and grown in 1:1 PriGrow VI Medium and PriGrow IV Medium (ABM).
(§1) Wild-type PVECs (5 × 10^5) were cocultured with sorted DLL4^+ neutrophils (5 × 10^5) or DLL4^– neutrophils (5 × 10^5) and then treated with different dosages of peptides or 10 μM DAPT (Thermo Fisher Scientific), 10 μM NDI (GenScript), or 10 μM NDI scramble (GenScript). Notch1-knockdown PVECs (5 × 10^5) were cocultured with sorted DLL4^+ neutrophils (5 × 10^5). After 16 hours, neutrophils were washed away by PBS, and PVECs were collected for further experiments. Cell viability was evaluated by propidium iodide staining using the FITC Annexin V Apoptosis Detection Kit I (catalog 556547, BD Pharmingen). Cell death was quantified as the percentage of propidium iodide–positive cells by flow cytometry.
mRNA was extracted from lung tissues with TRIzol reagent (Invitrogen, Thermo Fisher Scientific). An equal amount ([…]) of mRNA was reverse-transcribed into cDNA using the reverse transcriptase enzyme (Invitrogen, Thermo Fisher Scientific). qPCR was performed from the diluted cDNA templates with forward and reverse primers (Supplemental Table 4) and SYBR Green PCR Master Mix (Applied Biosystems, Thermo Fisher Scientific) using an Applied Biosystems 7300 real-time PCR machine. Mouse β-actin served as an internal control gene for normalization. Relative expression of mRNA was represented as fold change in comparison with the sham group.

p-MLKL = test: p-MLKL/MLKL (necroptosis) in PVECs cocultured with neutrophils, Western blot; format: cell-based, mouse; conditions: DAPT
Description: as §1
(§2) PVECs and lung tissue were collected in previous steps. Whole-cell proteins were extracted, and the protein concentration was measured using an ABC protein assay kit (catalog 5000002, Bio-Rad). Proteins were separated using NuPAGE 4%–12% Bis-Tris gels (Invitrogen), transferred to PVDF membranes, and immunoblotted with the antibodies indicated in the figure legends according to the manufacturer’s recommendations. The ZBP1 antibody (catalog PA5-20455; 1:1,000) used in this study was obtained from Thermo Fisher Scientific, and the c-GSDMD (catalog 10137S; 1:250), GSDMD (catalog 39754S; 1:1000), c-caspase-3 (catalog 9661L; 1:250), caspase-3 (catalog 9662S; 1:1,000), p-MLKL (catalog 37333S; 1:250), MLKL (catalog 37705S; 1:1,000), N1ICD (c-Notch1) (catalog 4147S; 1:250), and Notch1 (catalog 3608S; 1:1,000) antibodies were obtained from Cell Signaling Technology. GAPDH (catalog 60004-1-Ig; 1:10,000) and β-actin (catalog A5441, Sigma-Aldrich; 1:5,000) were obtained from ProteinTech. After the blots were incubated with primary antibodies, the membranes were washed 3 times, and the blots were subsequently incubated with the corresponding fluorescent secondary antibody (LI-COR). Bands were detected using an Odyssey FC Dual-Mode Imaging system 2800 (LI-COR).

c-caspase-3 = test: c/t caspase-3 (apoptosis) in PVECs cocultured with neutrophils, Western blot; format: cell-based, mouse; conditions: DAPT
Description: as §1, §2

c-GSDMD = test: c/t GSDMD (pyroptosis) in PVECs cocultured with neutrophils, Western blot; format: cell-based, mouse; conditions: DAPT
Description: as §1, §2

ZBP1 [2] = test: ZBP1 protein in PVECs cocultured with neutrophils, Western blot; format: cell-based, mouse; conditions: DAPT
Description: as §1, §2

[3] = target: Recombinant murine (rm) Notch1 (murine) (UniProt Q01705); test: SPR; OpenSPR (Nicoya), HS-NTA sensor activated with NiCl2; rmNotch1 (25 ug/mL) immobilised on channel 2; rmDLL4 as analyte at 5, 12.5, 50 and 100 nM, 40 uL/min; PBS, 0.005% P20, pH 7.4; channel 1 subtracted; global 1:1 fit
[4] = target: Recombinant murine (rm) Notch1 (murine) (UniProt Q01705); test: SPR; as a1, same HS-NTA sensor with rmNotch1; rmDLL4 at all concentrations preincubated with 1 ug/mL NDI for 30 minutes at room temperature before injection; 40 uL/min, 20°C; global 1:1 fit
rmNotch1 = target: T1, rmNotch1 (Mus musculus, UniProt Q01705); test: BIAcore assay (surface plasmon resonance), rmDLL4 to immobilized rmNotch1; format: binding, murine; conditions: OpenSPR, HS-NTA sensor, rmDLL4 5–100 nM, PBS 0.005% P20 pH 7.4, 20°C, 1:1 fit; without NDI; read-out: KD between DLL4 and Notch1
T1 construct: purchased R&D Systems 5267-TK (rmNotch1); 1389-D4-050/CF (rmDLL4)
Description: To determine rmDLL4’s direct interaction with rmNotch1, surface plasmon resonance (OpenSPR, Nicoya) was performed. High-sensitivity nitrilotriacetic acid (HS-NTA) sensors were used. Binding reactions were performed in running buffer (PBS, 0.005% P20, pH 7.4). The HS-NTA sensor was first cleaned by injection with 10 mM HCl (150 μL) followed by injection of 150 μL of 350 mM EDTA. […] For the effect of NDI efficacy on rmDLL4 binding to rmNotch1, the same HS-NTA sensor was used. rmDLL4 at all the concentrations used for binding with rmNotch1 was preincubated with 1 μg/mL NDI for 30 minutes at room temperature, and then the complexes were injected to channels 1 and 2. Binding reactions were carried out with the same running buffer at a flow rate of 40 μL/min at 20°C. Channel 1 was used as a control to evaluate nonspecific binding. The real-time interaction data were analyzed by Trace Drawer (Nicoya). The signals from channel 1 were subtracted from channel 2 coated with the ligand for all samples. Data were globally fitted for 1:1 binding (one-to-one model).

[5] = DLL4^+ neutrophil–stimulated PVECs
[6] = DLL4^– neutrophil–treated PVECs

Sequence of Recombinant murine (rm) Notch1 (murine) (Q01705 19-2531): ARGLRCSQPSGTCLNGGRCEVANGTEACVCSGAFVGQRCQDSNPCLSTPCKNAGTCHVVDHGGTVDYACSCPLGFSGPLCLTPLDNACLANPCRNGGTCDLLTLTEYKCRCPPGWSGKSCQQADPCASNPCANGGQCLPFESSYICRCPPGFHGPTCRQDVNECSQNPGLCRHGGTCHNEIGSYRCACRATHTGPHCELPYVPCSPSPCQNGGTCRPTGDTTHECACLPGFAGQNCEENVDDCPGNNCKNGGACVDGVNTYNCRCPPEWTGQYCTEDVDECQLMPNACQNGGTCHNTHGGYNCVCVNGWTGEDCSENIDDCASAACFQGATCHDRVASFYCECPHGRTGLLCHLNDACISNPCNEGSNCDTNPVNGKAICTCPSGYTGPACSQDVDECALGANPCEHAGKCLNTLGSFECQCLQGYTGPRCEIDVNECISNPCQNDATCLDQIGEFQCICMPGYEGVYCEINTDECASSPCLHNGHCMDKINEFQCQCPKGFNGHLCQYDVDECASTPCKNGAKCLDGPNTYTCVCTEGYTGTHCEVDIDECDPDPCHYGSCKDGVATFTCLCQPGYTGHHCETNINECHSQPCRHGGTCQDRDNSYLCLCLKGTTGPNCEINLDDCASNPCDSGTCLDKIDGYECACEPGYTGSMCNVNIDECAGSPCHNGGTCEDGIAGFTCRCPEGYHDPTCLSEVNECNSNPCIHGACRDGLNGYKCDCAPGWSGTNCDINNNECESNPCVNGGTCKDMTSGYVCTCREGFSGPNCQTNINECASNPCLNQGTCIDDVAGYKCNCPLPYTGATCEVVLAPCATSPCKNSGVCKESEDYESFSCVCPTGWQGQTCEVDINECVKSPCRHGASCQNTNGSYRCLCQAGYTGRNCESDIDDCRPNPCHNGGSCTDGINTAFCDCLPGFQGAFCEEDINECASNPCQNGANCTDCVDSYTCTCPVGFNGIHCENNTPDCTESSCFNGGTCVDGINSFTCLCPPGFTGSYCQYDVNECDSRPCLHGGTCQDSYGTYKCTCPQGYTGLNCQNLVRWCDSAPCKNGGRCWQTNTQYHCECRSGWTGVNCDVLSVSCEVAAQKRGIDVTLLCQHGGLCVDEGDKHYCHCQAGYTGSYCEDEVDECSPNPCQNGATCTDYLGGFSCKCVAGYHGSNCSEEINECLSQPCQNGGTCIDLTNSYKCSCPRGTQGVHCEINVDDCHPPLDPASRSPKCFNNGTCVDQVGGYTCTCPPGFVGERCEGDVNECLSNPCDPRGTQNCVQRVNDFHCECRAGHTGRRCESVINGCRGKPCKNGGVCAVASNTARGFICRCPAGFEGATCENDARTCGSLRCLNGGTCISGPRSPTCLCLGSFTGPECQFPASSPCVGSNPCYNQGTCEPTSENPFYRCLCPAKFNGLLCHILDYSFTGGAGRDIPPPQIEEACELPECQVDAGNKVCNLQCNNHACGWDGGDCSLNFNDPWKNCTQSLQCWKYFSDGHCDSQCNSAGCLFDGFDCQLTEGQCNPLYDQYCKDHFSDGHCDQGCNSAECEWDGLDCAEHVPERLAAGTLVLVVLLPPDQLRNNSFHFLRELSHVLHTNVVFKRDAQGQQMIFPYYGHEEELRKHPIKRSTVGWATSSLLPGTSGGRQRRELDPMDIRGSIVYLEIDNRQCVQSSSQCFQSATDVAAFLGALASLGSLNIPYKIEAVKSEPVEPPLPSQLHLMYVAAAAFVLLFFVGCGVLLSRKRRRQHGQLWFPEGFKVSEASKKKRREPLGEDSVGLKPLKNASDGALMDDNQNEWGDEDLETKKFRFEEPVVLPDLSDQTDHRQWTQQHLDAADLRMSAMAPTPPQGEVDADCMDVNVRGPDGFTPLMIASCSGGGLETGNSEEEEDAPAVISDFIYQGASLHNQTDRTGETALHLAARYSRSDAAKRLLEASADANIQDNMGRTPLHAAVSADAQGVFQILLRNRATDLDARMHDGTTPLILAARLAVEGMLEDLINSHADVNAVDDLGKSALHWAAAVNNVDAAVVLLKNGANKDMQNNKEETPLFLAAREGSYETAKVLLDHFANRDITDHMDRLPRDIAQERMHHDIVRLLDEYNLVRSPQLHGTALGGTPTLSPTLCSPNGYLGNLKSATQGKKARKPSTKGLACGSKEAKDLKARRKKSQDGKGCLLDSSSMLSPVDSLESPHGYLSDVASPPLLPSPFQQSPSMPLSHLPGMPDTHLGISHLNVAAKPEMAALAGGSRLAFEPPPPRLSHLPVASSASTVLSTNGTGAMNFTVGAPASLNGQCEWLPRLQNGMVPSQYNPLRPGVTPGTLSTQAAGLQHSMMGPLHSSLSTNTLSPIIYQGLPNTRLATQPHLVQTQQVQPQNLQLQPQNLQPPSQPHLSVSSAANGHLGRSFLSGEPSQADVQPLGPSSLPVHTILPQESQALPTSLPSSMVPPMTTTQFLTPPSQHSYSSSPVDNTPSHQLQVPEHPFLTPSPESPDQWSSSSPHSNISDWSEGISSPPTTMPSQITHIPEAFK
T1 sequence (Q01705 with tags, fused parts or gaps limits assumed, one chain of several): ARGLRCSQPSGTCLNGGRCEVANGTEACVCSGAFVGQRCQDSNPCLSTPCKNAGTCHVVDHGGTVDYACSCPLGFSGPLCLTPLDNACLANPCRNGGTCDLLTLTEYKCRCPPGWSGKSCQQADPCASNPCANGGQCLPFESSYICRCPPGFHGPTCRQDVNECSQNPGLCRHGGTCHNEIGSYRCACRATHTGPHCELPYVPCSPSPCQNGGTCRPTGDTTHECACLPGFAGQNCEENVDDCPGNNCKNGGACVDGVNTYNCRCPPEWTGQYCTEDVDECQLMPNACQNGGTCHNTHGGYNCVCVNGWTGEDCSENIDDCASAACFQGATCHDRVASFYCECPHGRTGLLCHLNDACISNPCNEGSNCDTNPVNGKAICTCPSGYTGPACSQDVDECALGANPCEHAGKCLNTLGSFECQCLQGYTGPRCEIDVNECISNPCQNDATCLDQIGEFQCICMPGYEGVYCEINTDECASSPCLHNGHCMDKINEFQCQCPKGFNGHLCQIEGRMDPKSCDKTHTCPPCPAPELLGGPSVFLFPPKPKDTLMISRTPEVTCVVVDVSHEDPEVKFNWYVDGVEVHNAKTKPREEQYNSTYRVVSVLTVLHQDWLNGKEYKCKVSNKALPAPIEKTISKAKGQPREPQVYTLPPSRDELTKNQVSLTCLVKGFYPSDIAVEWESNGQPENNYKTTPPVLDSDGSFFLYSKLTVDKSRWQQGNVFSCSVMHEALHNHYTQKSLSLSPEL

Molecule: C[C@H](NC(=O)Cc1cc(F)cc(F)c1)C(=O)N[C@H](C(=O)OC(C)(C)C)c1ccccc1 [DAPT, N-[N-(3,5-difluorophenacetyl)-L-alanyl]-S-phenylglycine t-butyl ester, reference compound]
effect on ZBP1 mRNA (ZBP1 [1]): reduced it to the baseline levels
effect on p-MLKL (p-MLKL; [5]): significantly reduced the elevated expression
effect on p-MLKL (p-MLKL; [6]): did not significantly reduce
effect on c-caspase-3 (c-caspase-3; [5]): significantly reduced the elevated expression
effect on c-caspase-3 (c-caspase-3; [6]): did not significantly reduce
effect on c-GSDMD (c-GSDMD; [5]): significantly reduced the elevated expression
effect on c-GSDMD (c-GSDMD; [6]): did not significantly reduce
effect on ZBP1 (ZBP1 [2]; [5]): significantly reduced the elevated expression
effect on ZBP1 (ZBP1 [2]; [6]): did not significantly reduce

Kd [3]: 0.0426 µM
KD with NDI present [4]: 0.237 µM
Molecule: Recombinant murine (rm) DLL4 (from UniProt Q9JI71 27-532) (ligand)

Kd (rmNotch1): 0.0426 µM
B1: DLL4: Recombinant murine DLL4, R&D Systems (protein)
chain: GSGIFQLRLQEFVNQRGMLANGQSCEPGCRTFFRICLKHFQATFSEGPCTFGNVSTPVLGTNSFVVRDKNSGSGRNPLQLPFNFTWPGTFSLNIQAWHTPGDDLRPETSPGNSLISQIIIQGSLAVGKIWRTDEQNDTLTRLSYSYRVICSDNYYGESCSRLCKKRDDHFGHYECQPDGSLSCLPGWTGKYCDQPICLSGCHEQNGYCSKPDECICRPGWQGRLCNECIPHNGCRHGTCSIPWQCACDEGWGGLFCDQDLNYCTHHSPCKNGSTCSNSGPKGYTCTCLPGYTGEHCELGLSKCASNPCRNGGSCKDQENSYHCLCPPGYYGQHCEHSTLTCADSPCFNGGSCRERNQGSSYACECPPNFTGSNCEKKVDRCTSNPCANGGQCQNRGPSRTCRCRPGFTGTHCELHISDCARSPCAHGGTCHDLENGPVCTCPAGFSGRRCEVRITHDACASGPCFNGATCYTGLSPNNFVCNCPYGFVGSRCEFPVGLPPSFPWVA
